Measurements taken from PMC6934184, “Selective DNA-PKcs inhibition extends the therapeutic index of localized radiotherapy and chemotherapy” (The Journal of Clinical Investigation, 2019).

Target: T1, NEK6 (Homo sapiens, UniProt Q9HC98)
T1 construct: purchased Thermo Fisher Scientific (Life Technologies) SelectScreen
Experiment: SelectScreen Z'LYTE
Assay type: biochemical
Summary of the method: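 NU5455 was profiled across the SelectScreen Broad panel of kinase activity and binding assays. Z'LYTE reactions such as CSF1R ran at apparent Km ATP, while the Adapta CAMK1 assay used ATP listed as 10. Values are given as percent.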

T1 sequence (Q9HC98 whole entry): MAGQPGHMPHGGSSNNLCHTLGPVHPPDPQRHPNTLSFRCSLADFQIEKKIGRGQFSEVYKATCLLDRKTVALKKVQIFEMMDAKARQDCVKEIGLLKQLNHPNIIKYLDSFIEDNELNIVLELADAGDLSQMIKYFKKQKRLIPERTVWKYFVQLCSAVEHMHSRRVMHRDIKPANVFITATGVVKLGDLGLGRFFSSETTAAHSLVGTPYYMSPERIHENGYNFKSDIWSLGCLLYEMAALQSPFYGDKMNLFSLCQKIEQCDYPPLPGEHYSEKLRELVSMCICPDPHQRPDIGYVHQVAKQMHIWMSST

With CN(C(=O)CN1CCOCC1)c1ccc2sc3c(-c4cccc5c(=O)cc(N6CC7CCC(C6)O7)oc45)cccc3c2c1 [NU5455] the inhibition at 1 µM was -19.8%.
